{"source": "paper PMC5218480", "about": "(PLoS ONE, 2017)", "test_system": "MV-4-11 cells", "assay": "Gene expression microarray analysis (Affymetrix PrimeView) and GSEA", "assay_type": "cell-based, human", "design": "RFU PODN (11730768_x_at) / Fold change /veh PODN (11730768_x_at) / RFU LINC00158 (11744669_a_at) / Fold change /veh LINC00158 (11744669_a_at) / RFU DUSP10 (11751237_a_at) / Fold change /veh DUSP10 (11751237_a_at) / RFU ID3 (11757404_x_at) / Fold change /veh ID3 (11757404_x_at) / RFU PLEKHG5 (11737974_s_at) / Fold change /veh PLEKHG5 (11737974_s_at) / RFU LRRC4B (11730491_at) / Fold change /veh LRRC4B (11730491_at) / RFU GIMAP4 (11747438_a_at) / Fold change /veh GIMAP4 (11747438_a_at) / RFU KRT8 (11758183_x_at) / Fold change /veh KRT8 (11758183_x_at) / RFU CNN1 (11734310_a_at) / Fold change /veh CNN1 (11734310_a_at) / RFU VPS37D (11726825_at) / Fold change /veh VPS37D (11726825_at) / RFU C10orf10 (11716522_x_at) / Fold change /veh C10orf10 (11716522_x_at) / RFU KIR2DL2 /// KIR2DL4 /// KIR2DL5A /// KIR2DL5B /// KIR2DS1 /// KIR2DS2 /// KIR2DS3 /// KIR2DS4 /// KIR3DL3 /// KIR3DL3 /// KIR3DS1 (11738374_at) / Fold change /veh KIR2DL2 /// KIR2DL4 /// KIR2DL5A /// KIR2DL5B /// KIR2DS1 /// KIR2DS2 /// KIR2DS3 /// KIR2DS4 /// KIR3DL3 /// KIR3DL3 /// KIR3DS1 (11738374_at) / RFU C1QL1 (11718748_at) / Fold change /veh C1QL1 (11718748_at) / RFU TMPRSS4 (11747572_a_at) / Fold change /veh TMPRSS4 (11747572_a_at) / RFU HAMP (11756126_x_at) / Fold change /veh HAMP (11756126_x_at) / RFU RNFT2 (11725882_a_at) / Fold change /veh RNFT2 (11725882_a_at) / RFU NR4A2 (11747474_a_at) / Fold change /veh NR4A2 (11747474_a_at) / RFU ABCC12 (11746883_a_at) / Fold change /veh ABCC12 (11746883_a_at) / RFU TMEM136 (11760407_x_at) / Fold change /veh TMEM136 (11760407_x_at) / RFU CLDN22 /// WWC2 (11732394_at) / Fold change /veh CLDN22 /// WWC2 (11732394_at) / RFU HLA-DPB1 (11760878_x_at) / Fold change /veh HLA-DPB1 (11760878_x_at) / RFU SPINT1 (11716480_a_at) / Fold change /veh SPINT1 (11716480_a_at) / RFU GAP43 (11754022_s_at) / Fold change /veh GAP43 (11754022_s_at) / RFU A4GNT (11735810_at) / Fold change /veh A4GNT (11735810_at) / RFU PRB3 (11715151_x_at) / Fold change /veh PRB3 (11715151_x_at) / RFU TUBB4B (11761932_at) / Fold change /veh TUBB4B (11761932_at) / RFU CAPN14 (11732068_a_at) / Fold change /veh CAPN14 (11732068_a_at) / RFU TMCC2 (11721928_a_at) / Fold change /veh TMCC2 (11721928_a_at) / RFU IRGQ (11745062_a_at) / Fold change /veh IRGQ (11745062_a_at) / RFU FAM174B (11720279_a_at) / Fold change /veh FAM174B (11720279_a_at) / RFU TMPRSS4 (11748680_a_at) / Fold change /veh TMPRSS4 (11748680_a_at) / RFU FAM212B (11763350_a_at) / Fold change /veh FAM212B (11763350_a_at) / RFU PLEKHG5 (11743358_a_at) / Fold change /veh PLEKHG5 (11743358_a_at) / RFU ZSCAN30 (11745921_a_at) / Fold change /veh ZSCAN30 (11745921_a_at) / RFU CMKLR1 (11741424_a_at) / Fold change /veh CMKLR1 (11741424_a_at) / RFU LOC101060620 /// MAPK8IP1 (11723275_at) / Fold change /veh LOC101060620 /// MAPK8IP1 (11723275_at) / RFU SPTSSB (11747773_x_at) / Fold change /veh SPTSSB (11747773_x_at) / RFU PRSS12 (11739890_at) / Fold change /veh PRSS12 (11739890_at) / RFU BIN1 (11741810_x_at) / Fold change /veh BIN1 (11741810_x_at) / RFU WNT11 (11732464_a_at) / Fold change /veh WNT11 (11732464_a_at) / RFU C10orf10 (11716521_a_at) / Fold change /veh C10orf10 (11716521_a_at) / RFU C5orf56 (11738089_at) / Fold change /veh C5orf56 (11738089_at) / RFU CYB561 (11721691_x_at) / Fold change /veh CYB561 (11721691_x_at) / RFU ANKRD19P (11752326_a_at) / Fold change /veh ANKRD19P (11752326_a_at) / RFU OR2T12 /// OR2T33 /// OR2T8 (11738714_s_at) / Fold change /veh OR2T12 /// OR2T33 /// OR2T8 (11738714_s_at) / RFU VCAN (11748164_a_at) / Fold change /veh VCAN (11748164_a_at) / RFU JSRP1 (11732532_at) / Fold change /veh JSRP1 (11732532_at) / RFU KRTAP10-11 (11738290_x_at) / Fold change /veh KRTAP10-11 (11738290_x_at) / RFU MYO3A (11730013_a_at) / Fold change /veh MYO3A (11730013_a_at) / RFU EBF3 (11725865_a_at) / Fold change /veh EBF3 (11725865_a_at) / RFU CAMK2N1 (11719241_x_at) / Fold change /veh CAMK2N1 (11719241_x_at) / RFU C5orf56 (11738088_a_at) / Fold change /veh C5orf56 (11738088_a_at) / RFU OLFML3 (11715873_a_at) / Fold change /veh OLFML3 (11715873_a_at) / RFU LOC100653217 /// NTM (11731650_a_at) / Fold change /veh LOC100653217 /// NTM (11731650_a_at) / RFU MAPK11 (11762145_a_at) / Fold change /veh MAPK11 (11762145_a_at) / RFU FIZ1 (11724087_x_at) / Fold change /veh FIZ1 (11724087_x_at) / RFU OASL (11726364_x_at) / Fold change /veh OASL (11726364_x_at) / RFU SOX15 (11748057_x_at) / Fold change /veh SOX15 (11748057_x_at) / RFU CD79A (11719716_a_at) / Fold change /veh CD79A (11719716_a_at) / RFU HIST1H1D (11736915_at) / Fold change /veh HIST1H1D (11736915_at) / RFU CASKIN2 (11723855_a_at) / Fold change /veh CASKIN2 (11723855_a_at) / RFU LOC730098 (11760151_x_at) / Fold change /veh LOC730098 (11760151_x_at) / RFU OR4N2 (11742367_at) / Fold change /veh OR4N2 (11742367_at) / RFU PRRT2 (11749266_a_at) / Fold change /veh PRRT2 (11749266_a_at) / RFU SNX32 (11753110_a_at) / Fold change /veh SNX32 (11753110_a_at) / RFU CDHR5 (11726645_a_at) / Fold change /veh CDHR5 (11726645_a_at) / RFU RCAN1 (11760418_a_at) / Fold change /veh RCAN1 (11760418_a_at) / RFU FAM167A (11723789_a_at) / Fold change /veh FAM167A (11723789_a_at) / RFU FAM26E (11764081_at) / Fold change /veh FAM26E (11764081_at) / RFU ISYNA1 (11749810_s_at) / Fold change /veh ISYNA1 (11749810_s_at) / RFU ACY1 (11761880_at) / Fold change /veh ACY1 (11761880_at) / RFU 11764098_at / Fold change /veh 11764098_at / RFU SAMD14 (11745864_x_at) / Fold change /veh SAMD14 (11745864_x_at) / RFU NPB (11741838_a_at) / Fold change /veh NPB (11741838_a_at) / RFU TMPRSS6 (11731388_a_at) / Fold change /veh TMPRSS6 (11731388_a_at) / RFU KRTAP10-2 (11738614_at) / Fold change /veh KRTAP10-2 (11738614_at) / RFU ARHGAP8 /// PRR5-ARHGAP8 (11727945_x_at) / Fold change /veh ARHGAP8 /// PRR5-ARHGAP8 (11727945_x_at) / RFU KRTAP5-7 /// NADSYN1 (11734609_at) / Fold change /veh KRTAP5-7 /// NADSYN1 (11734609_at) / RFU RASL12 (11751679_a_at) / Fold change /veh RASL12 (11751679_a_at) / RFU CDKN2B (11736163_a_at) / Fold change /veh CDKN2B (11736163_a_at) / RFU PRF1 (11729649_at) / Fold change /veh PRF1 (11729649_at) / RFU, ZNF638 /// ZNF638-IT1 / Fold change vs veh, ZNF638 /// ZNF638-IT1 / RFU, PANK3 / Fold change vs veh, PANK3 / RFU, SH3YL1 / Fold change vs veh, SH3YL1 / RFU, ZEB2 / Fold change vs veh, ZEB2 / RFU, NRIP1 / Fold change vs veh, NRIP1 / RFU, PTTG1IP / Fold change vs veh, PTTG1IP / RFU, CAPN2 / Fold change vs veh, CAPN2 / RFU, MED14 / Fold change vs veh, MED14 / RFU, SNORA58 / Fold change vs veh, SNORA58 / RFU, C1orf63 / Fold change vs veh, C1orf63 / RFU, LRRFIP1 / Fold change vs veh, LRRFIP1 / RFU, NDUFAF7 / Fold change vs veh, NDUFAF7 / RFU, SLC12A2 / Fold change vs veh, SLC12A2 / RFU, IBTK / Fold change vs veh, IBTK / RFU, ESF1 / Fold change vs veh, ESF1 / Fold change vs veh, TMEM50B / RFU, TAOK1 / Fold change vs veh, TAOK1 / RFU, ACBD3 / Fold change vs veh, ACBD3 / RFU, TMA16 / Fold change vs veh, TMA16 / RFU, RWDD3 / Fold change vs veh, RWDD3 / RFU, BCAT1 / Fold change vs veh, BCAT1 / RFU, EDEM3 / Fold change vs veh, EDEM3 / RFU, TMEM33 / Fold change vs veh, TMEM33 / RFU, WDR75 / Fold change vs veh, WDR75 / RFU, AHCTF1 / Fold change vs veh, AHCTF1 / RFU, TFRC / Fold change vs veh, TFRC / RFU, ZDHHC17 / Fold change vs veh, ZDHHC17 / RFU, NOM1 / Fold change vs veh, NOM1 / RFU, ARL8B / Fold change vs veh, ARL8B / RFU, ZBTB11 / Fold change vs veh, ZBTB11 / RFU, TAMM41 / Fold change vs veh, TAMM41 / RFU, KIAA1704 /// LOC100996395 / Fold change vs veh, KIAA1704 /// LOC100996395 / RFU, ING1 / Fold change vs veh, ING1 / RFU, TRMT61B / Fold change vs veh, TRMT61B / RFU, FUBP3 / Fold change vs veh, FUBP3 / RFU, TP53 / Fold change vs veh, TP53 / RFU, TNKS2 / Fold change vs veh, TNKS2 / RFU, ZFP14 / Fold change vs veh, ZFP14 / RFU, ACTR2 / Fold change vs veh, ACTR2 / RFU, PPP3R1 / Fold change vs veh, PPP3R1 / RFU, PIK3R1 / Fold change vs veh, PIK3R1 / RFU, HNRNPA1 / Fold change vs veh, HNRNPA1 / RFU, RNF170 / Fold change vs veh, RNF170 / RFU, ZNF28 / Fold change vs veh, ZNF28 / RFU, RNGTT / Fold change vs veh, RNGTT / RFU, OGT / Fold change vs veh, OGT / RFU, BRD1 / Fold change vs veh, BRD1 / RFU, MARS / Fold change vs veh, MARS / RFU, ZNF655 / Fold change vs veh, ZNF655 / RFU, FAHD1 / Fold change vs veh, FAHD1 / RFU, BDP1 / Fold change vs veh, BDP1 / RFU, LRRCC1 / Fold change vs veh, LRRCC1 / RFU, ARID1A / Fold change vs veh, ARID1A / RFU, ZNF146 / Fold change vs veh, ZNF146 / RFU, ZNF330 / Fold change vs veh, ZNF330 / RFU, GPN3 / Fold change vs veh, GPN3 / RFU, C9orf123 / Fold change vs veh, C9orf123 / RFU, N4BP2L2 / Fold change vs veh, N4BP2L2 / RFU, ARFIP1 / Fold change vs veh, ARFIP1 / RFU, FAM179B / Fold change vs veh, FAM179B / RFU, BCL10 / Fold change vs veh, BCL10 / RFU, UHRF1BP1L / Fold change vs veh, UHRF1BP1L / RFU, BET1 / Fold change vs veh, BET1 / RFU, CNOT2 / Fold change vs veh, CNOT2 / RFU, ZNF268 / Fold change vs veh, ZNF268 / Fold change vs veh, ZNF507 / RFU, DGCR2 / Fold change vs veh, DGCR2 / RFU, WDSUB1 / Fold change vs veh, WDSUB1 / Fold change vs veh, HSP90B1 /// MIR3652 / RFU, ADSS / Fold change vs veh, ADSS / RFU, GK / Fold change vs veh, GK / RFU, ZNF148 / Fold change vs veh, ZNF148 / RFU, TAF9 / Fold change vs veh, TAF9 / RFU, SLC1A5 / Fold change vs veh, SLC1A5 / RFU, SLMO2 / Fold change vs veh, SLMO2 / RFU, ABCC4 / Fold change vs veh, ABCC4 / RFU, LOC101060439 /// RAP1B / Fold change vs veh, LOC101060439 /// RAP1B / RFU, RFX7 / Fold change vs veh, RFX7 / RFU, GTPBP10 / Fold change vs veh, GTPBP10 / RFU, CNEP1R1 / Fold change vs veh, CNEP1R1 / RFU, BIVM-ERCC5 /// ERCC5 / Fold change vs veh, BIVM-ERCC5 /// ERCC5 / RFU, ILF3 / Fold change vs veh, ILF3 / RFU 11762660_at / Fold change /veh 11762660_at / RFU VCAN (11757783_s_at) / Fold change /veh VCAN (11757783_s_at) / RFU DDX43 (11728927_at) / Fold change /veh DDX43 (11728927_at) / RFU KRT8 (11758188_x_at) / Fold change /veh KRT8 (11758188_x_at) / RFU NKD1 (11759106_at) / Fold change /veh NKD1 (11759106_at) / RFU SRD5A1 (11742802_a_at) / Fold change /veh SRD5A1 (11742802_a_at) / RFU TPSAB1 /// TPSB2 (11721975_s_at) / Fold change /veh TPSAB1 /// TPSB2 (11721975_s_at) / RFU GSTM3 (11746129_a_at) / Fold change /veh GSTM3 (11746129_a_at) / RFU IL23R (11737362_x_at) / Fold change /veh IL23R (11737362_x_at) / RFU TMEM51 (11727254_a_at) / Fold change /veh TMEM51 (11727254_a_at) / RFU PIWIL2 (11732686_x_at) / Fold change /veh PIWIL2 (11732686_x_at) / RFU ORM1 (11744905_x_at) / Fold change /veh ORM1 (11744905_x_at) / RFU CCDC152 (11743942_at) / Fold change /veh CCDC152 (11743942_at) / RFU ECM1 (11717891_a_at) / Fold change /veh ECM1 (11717891_a_at) / RFU IL23R (11748794_a_at) / Fold change /veh IL23R (11748794_a_at) / RFU TNFAIP8L3 (11732012_x_at) / Fold change /veh TNFAIP8L3 (11732012_x_at) / RFU MBOAT4 (11741988_at) / Fold change /veh MBOAT4 (11741988_at) / RFU 11764193_at / Fold change /veh 11764193_at / RFU TMEM53 (11763286_at) / Fold change /veh TMEM53 (11763286_at) / RFU MAGEB2 (11727129_at) / Fold change /veh MAGEB2 (11727129_at) / RFU TMEM200A (11744735_a_at) / Fold change /veh TMEM200A (11744735_a_at) / RFU CCDC152 (11751479_a_at) / Fold change /veh CCDC152 (11751479_a_at) / RFU FAM211A (11726209_a_at) / Fold change /veh FAM211A (11726209_a_at) / RFU RGS16 (11746705_a_at) / Fold change /veh RGS16 (11746705_a_at) / RFU VCAN (11755009_s_at) / Fold change /veh VCAN (11755009_s_at) / RFU RHOB (11743442_s_at) / Fold change /veh RHOB (11743442_s_at) / RFU RGS16 (11720943_a_at) / Fold change /veh RGS16 (11720943_a_at) / RFU RGS16 (11720944_at) / Fold change /veh RGS16 (11720944_at) / RFU, VPS4B / Fold change vs veh, VPS4B / RFU, CREB1 / Fold change vs veh, CREB1 / RFU, DNAJC13 / Fold change vs veh, DNAJC13 / RFU, GNAQ / Fold change vs veh, GNAQ / RFU, CDK5R1 / Fold change vs veh, CDK5R1 / RFU, ZRANB3 / Fold change vs veh, ZRANB3 / RFU, CUL4A / Fold change vs veh, CUL4A / RFU, CCNY / Fold change vs veh, CCNY / RFU, UFL1 / Fold change vs veh, UFL1 / RFU, COG3 / Fold change vs veh, COG3 / RFU, DIAPH2 / Fold change vs veh, DIAPH2 / RFU, SKA2 / Fold change vs veh, SKA2 / RFU, AFF3 / Fold change vs veh, AFF3 / RFU, LMF1 / Fold change vs veh, LMF1 / RFU, IPO11 / Fold change vs veh, IPO11 / RFU, DFFB / Fold change vs veh, DFFB / RFU, FOXP1 / Fold change vs veh, FOXP1 / RFU, CARD8 / Fold change vs veh, CARD8 / RFU, STRN3 / Fold change vs veh, STRN3 / RFU, ADK / Fold change vs veh, ADK / RFU, RASSF2 / Fold change vs veh, RASSF2 / RFU, WIPF1 / Fold change vs veh, WIPF1 / RFU, LARP1B / Fold change vs veh, LARP1B / RFU, RASA1 / Fold change vs veh, RASA1 / RFU, RB1 / Fold change vs veh, RB1 / RFU, PPFIA1 / Fold change vs veh, PPFIA1 / RFU, MAT2A / Fold change vs veh, MAT2A / RFU, CCT5 / Fold change vs veh, CCT5 / RFU, WDR92 / Fold change vs veh, WDR92 / RFU, CUX1 / Fold change vs veh, CUX1 / RFU, TTC7A / Fold change vs veh, TTC7A / RFU, TMEM135 / Fold change vs veh, TMEM135 / RFU, DEPTOR / Fold change vs veh, DEPTOR / RFU, CPM / Fold change vs veh, CPM / RFU, DNAJB6 / Fold change vs veh, DNAJB6 / RFU, CACNA2D3 / Fold change vs veh, CACNA2D3 / RFU, DTX4 / Fold change vs veh, DTX4 / RFU, TFCP2 / Fold change vs veh, TFCP2 / RFU, GMCL1 /// GMCL1P1 / Fold change vs veh, GMCL1 /// GMCL1P1 / RFU, AEBP2 / Fold change vs veh, AEBP2 / RFU, SNHG1 /// SNORD22 /// SNORD25 /// SNORD26 /// SNORD27 /// SNORD28 /// SNORD29 /// SNORD31 / Fold change vs veh, SNHG1 /// SNORD22 /// SNORD25 /// SNORD26 /// SNORD27 /// SNORD28 /// SNORD29 /// SNORD31 / Fold change (Aza/veh), C12orf56 (ProbeSet 11735607_a_at) / Fold change (ACY-1035/veh), C12orf56 (ProbeSet 11735607_a_at) / Fold change (Aza/veh), FGFR1OP (ProbeSet 11751329_s_at) / Fold change (ACY-1035/veh), FGFR1OP (ProbeSet 11751329_s_at) / Fold change (Aza/veh), VPS36 (ProbeSet 11739960_a_at) / Fold change (ACY-1035/veh), VPS36 (ProbeSet 11739960_a_at) / RFU SYPL1 (11715823_x_at) / Fold change /veh SYPL1 (11715823_x_at) / RFU IGFBP7 (11715501_s_at) / Fold change /veh IGFBP7 (11715501_s_at) / RFU REEP3 (11722064_at) / Fold change /veh REEP3 (11722064_at) / RFU IGLL1 (11728026_x_at) / Fold change /veh IGLL1 (11728026_x_at): dose or concentration left out as unconfirmed", "details": "MV-4-11 cells, 48 hours"}
{"smiles": "Nc1ncn([C@@H]2O[C@H](CO)[C@@H](O)[C@H]2O)c(=O)n1", "note": "[azacitidine]", "values": [{"measurement": "RFU KRT8 (11758188_x_at)", "result": 23.78, "unit": "RFU"}]}
